ChEMBL document CHEMBL1201862, “PubChem BioAssay data set” (2004)
Calls of active or inactive are those of the source.

Experiments:
[1] = T. cruzi growth inhibition in host cells, dose response, cell-based, plate reader, dry powder, set 2 (AID 652275); format: functional
[2] = HeLa 2N DNA content increase, dose response, cell-based, IC50 (AID 1117349); format: functional
[3] = Concentration-dependent survival of SW480 colon cancer line, luminescence detection with CellTiter-Glo, half-maximal inhibitory concentration (AID 1117338); format: functional
[4] = RKO cell viability reduction, dose response, CellTiter-Glo luminescence (AID 1117322); format: functional
[5] = cytotoxicity toward HCT116 cells – cell-based, CellTiter-Glo luminescence, IC50, dose response (AID 1117332); format: functional; conditions: HCT-116
[6] = HeLa 4N DNA content increase, dose response, cell-based, IC50 (AID 1117351); format: functional
[7] = cytotoxicity toward HT-29 cells – cell-based, CellTiter-Glo luminescence, IC50, dose response (AID 1117330); format: functional
[8] = CellTiter-Glo luminescent dose response of DLD-1 viability loss (AID 1117352); format: functional
[9] = HCT116 cell viability decrease, GSK3B pretreatment – CellTiter-Glo, IC50, dose response (AID 1117339); format: functional; conditions: HCT-116
[10] = human group III sPLA2 inhibitors, dose response, biochemical, QFRET, IC50 (AID 743457);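 further: green fluorescence rise as the enzyme cleaves BODIPY PC-A2 in liposomes; potency for inhibition of the enzyme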
Albumin = Albumin (Bos taurus, UniProt P02769); test: Counterscreen for inhibitors of T-cell receptor (TCR)-CD3 interaction: Fluorescence-based biochemical high throughput dose response assay to identify inhibitors of T-cell receptor (TCR)-CD3 interaction using a TAMRA-labeled BSA probe.; format: functional
Large T antigen = Large T antigen (Simian virus 40, UniProt P03070); format: functional, Betapolyomavirus macacae;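 further: Confirmatory-stage PubChem screen for compounds that inhibit SV40 T antigen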
Genome polyprotein = Genome polyprotein (dengue virus type 2, UniProt P29990); test: Dengue-2 NS5 methyltransferase inhibitors, primary screen, biochemical, confirmation dose response (AID 588689); format: functional
[11] = HeLa cell cytotoxicity, dose response, cytotoxicity control for MgcRacGAP inhibitor project (AID 624300); format: functional
[12] = biological target: T1, Rac GTPase-activating protein 1 (Homo sapiens, UniProt Q9H0H5); test: MgcRacGAP GTPase-activating activity inhibitors, confirmation, biochemical, ADP Hunter fluorescence, primary and confirmatory (AID 624330); format: functional
T1 sequence (Q9H0H5 whole entry): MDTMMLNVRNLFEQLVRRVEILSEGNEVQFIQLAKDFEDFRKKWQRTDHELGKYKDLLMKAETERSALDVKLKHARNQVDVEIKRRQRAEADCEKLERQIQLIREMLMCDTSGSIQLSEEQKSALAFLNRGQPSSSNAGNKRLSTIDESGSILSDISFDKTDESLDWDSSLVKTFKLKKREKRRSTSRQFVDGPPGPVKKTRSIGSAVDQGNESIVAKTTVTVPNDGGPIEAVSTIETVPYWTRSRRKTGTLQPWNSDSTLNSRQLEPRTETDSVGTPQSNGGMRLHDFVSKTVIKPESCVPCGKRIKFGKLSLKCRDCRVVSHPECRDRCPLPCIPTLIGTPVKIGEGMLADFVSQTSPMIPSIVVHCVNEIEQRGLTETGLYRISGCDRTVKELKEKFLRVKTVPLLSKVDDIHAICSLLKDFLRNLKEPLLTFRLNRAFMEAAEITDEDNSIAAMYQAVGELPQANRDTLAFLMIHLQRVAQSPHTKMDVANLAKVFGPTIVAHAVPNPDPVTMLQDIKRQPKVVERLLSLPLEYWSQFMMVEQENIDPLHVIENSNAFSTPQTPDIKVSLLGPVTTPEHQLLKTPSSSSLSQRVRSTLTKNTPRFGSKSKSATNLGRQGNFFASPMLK

Paired box protein Pax-8 = Paired box protein Pax-8 (Homo sapiens, UniProt Q06710); test: inhibitors of PAX8-driven TPO luciferase reporter, dose response, RMG-I cells, cherry-pick (AID 687027); format: functional, cell-based;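 further: luciferase reporter driven by Pax8 target thyroperoxidase promoter measured by SteadyGlo luminescence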
[13] = cytotoxicity in OVCAR8 ovarian cancer cells, dose response, PAX8 project, cell-based, plate reader, dry powder samples (AID 743197); format: functional; conditions: OVCAR-8
Estrogen receptor beta = Estrogen receptor beta (Homo sapiens, UniProt Q92731); test: ERβ–SRC-3 coactivator interaction inhibitors, confirmation, orthogonal assay, biochemical, ELISA, streptavidin-HRP readout (AID 1060)
[14] = SNU-C1 cell viability reduction, dose response, CellTiter-Glo luminescence (AID 1117323); format: functional, cell-based
[15] = cytotoxicity toward Colo320 cells – cell-based, CellTiter-Glo luminescence, IC50, dose response (AID 1117334); format: functional; conditions: COLO 320

Albumin, sequence (P02769 whole entry): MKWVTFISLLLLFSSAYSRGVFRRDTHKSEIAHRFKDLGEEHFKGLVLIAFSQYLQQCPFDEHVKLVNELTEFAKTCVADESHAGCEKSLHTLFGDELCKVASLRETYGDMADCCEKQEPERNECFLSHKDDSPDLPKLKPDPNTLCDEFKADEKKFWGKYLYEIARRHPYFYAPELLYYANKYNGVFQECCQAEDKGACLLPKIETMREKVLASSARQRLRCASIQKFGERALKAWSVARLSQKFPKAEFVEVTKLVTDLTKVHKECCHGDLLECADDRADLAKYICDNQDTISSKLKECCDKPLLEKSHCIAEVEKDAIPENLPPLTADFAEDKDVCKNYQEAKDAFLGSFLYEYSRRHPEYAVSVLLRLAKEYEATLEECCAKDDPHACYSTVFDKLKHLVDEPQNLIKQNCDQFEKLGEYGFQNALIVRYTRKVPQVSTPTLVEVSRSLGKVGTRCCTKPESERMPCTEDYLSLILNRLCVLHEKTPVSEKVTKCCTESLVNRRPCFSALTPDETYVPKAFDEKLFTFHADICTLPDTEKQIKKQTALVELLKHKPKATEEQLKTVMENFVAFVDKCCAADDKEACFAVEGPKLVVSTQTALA
Large T antigen, sequence (P03070 whole entry): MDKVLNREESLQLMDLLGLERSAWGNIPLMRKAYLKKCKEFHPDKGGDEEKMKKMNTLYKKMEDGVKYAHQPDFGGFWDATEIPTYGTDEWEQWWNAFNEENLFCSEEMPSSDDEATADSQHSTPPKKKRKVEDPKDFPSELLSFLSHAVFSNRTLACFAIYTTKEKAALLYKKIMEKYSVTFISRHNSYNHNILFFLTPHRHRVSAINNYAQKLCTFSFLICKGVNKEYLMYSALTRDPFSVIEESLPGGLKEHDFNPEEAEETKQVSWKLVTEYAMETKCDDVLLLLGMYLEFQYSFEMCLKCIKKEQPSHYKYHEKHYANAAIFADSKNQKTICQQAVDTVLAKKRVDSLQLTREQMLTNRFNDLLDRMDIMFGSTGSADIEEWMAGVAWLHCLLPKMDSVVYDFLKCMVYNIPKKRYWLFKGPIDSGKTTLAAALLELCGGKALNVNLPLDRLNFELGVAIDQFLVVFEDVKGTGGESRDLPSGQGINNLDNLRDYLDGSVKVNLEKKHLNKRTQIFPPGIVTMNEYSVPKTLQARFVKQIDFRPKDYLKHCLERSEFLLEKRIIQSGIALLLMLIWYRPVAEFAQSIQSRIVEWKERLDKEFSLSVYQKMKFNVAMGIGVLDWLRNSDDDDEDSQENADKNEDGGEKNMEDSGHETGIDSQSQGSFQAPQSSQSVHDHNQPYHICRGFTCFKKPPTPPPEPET
Estrogen receptor beta, sequence (Q92731 whole entry): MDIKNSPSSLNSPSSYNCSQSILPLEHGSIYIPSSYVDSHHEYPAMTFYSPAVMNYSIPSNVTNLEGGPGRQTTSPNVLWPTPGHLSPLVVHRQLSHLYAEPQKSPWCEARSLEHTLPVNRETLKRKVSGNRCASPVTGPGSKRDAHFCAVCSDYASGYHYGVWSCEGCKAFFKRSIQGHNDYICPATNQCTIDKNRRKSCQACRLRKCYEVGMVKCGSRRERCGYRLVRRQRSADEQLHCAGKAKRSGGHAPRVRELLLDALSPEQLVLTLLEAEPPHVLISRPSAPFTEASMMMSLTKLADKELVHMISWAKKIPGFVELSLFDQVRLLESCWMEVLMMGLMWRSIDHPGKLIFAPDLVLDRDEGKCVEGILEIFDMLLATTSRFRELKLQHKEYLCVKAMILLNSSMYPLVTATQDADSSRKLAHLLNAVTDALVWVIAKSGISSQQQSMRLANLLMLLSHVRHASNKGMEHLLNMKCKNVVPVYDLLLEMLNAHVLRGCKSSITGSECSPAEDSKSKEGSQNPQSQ
Genome polyprotein, sequence (P29990 2492-3391 limits assumed): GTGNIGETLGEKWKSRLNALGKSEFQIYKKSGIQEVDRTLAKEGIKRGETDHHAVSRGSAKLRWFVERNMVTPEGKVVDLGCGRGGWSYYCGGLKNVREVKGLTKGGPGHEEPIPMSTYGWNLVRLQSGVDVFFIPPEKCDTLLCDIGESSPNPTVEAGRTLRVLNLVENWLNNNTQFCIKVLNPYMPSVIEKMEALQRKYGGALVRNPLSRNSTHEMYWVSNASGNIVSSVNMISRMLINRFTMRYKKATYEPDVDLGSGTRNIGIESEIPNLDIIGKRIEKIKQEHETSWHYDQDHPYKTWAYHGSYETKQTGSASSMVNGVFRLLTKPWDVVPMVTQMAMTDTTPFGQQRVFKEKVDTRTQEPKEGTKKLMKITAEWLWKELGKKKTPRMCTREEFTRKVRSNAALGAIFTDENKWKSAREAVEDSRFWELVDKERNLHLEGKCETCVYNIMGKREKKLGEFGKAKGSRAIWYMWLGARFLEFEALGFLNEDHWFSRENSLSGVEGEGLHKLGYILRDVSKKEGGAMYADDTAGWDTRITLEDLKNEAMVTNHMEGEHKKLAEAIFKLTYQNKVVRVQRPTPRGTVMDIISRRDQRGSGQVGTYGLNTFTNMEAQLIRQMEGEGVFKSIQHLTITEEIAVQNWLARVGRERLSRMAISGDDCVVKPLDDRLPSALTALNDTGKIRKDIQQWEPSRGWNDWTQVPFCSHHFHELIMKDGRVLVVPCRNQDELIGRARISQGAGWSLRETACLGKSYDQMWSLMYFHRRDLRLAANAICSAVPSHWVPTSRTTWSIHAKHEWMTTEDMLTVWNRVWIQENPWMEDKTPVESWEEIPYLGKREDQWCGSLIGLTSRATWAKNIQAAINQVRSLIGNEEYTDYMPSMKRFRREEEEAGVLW
Paired box protein Pax-8, sequence (Q06710 whole entry): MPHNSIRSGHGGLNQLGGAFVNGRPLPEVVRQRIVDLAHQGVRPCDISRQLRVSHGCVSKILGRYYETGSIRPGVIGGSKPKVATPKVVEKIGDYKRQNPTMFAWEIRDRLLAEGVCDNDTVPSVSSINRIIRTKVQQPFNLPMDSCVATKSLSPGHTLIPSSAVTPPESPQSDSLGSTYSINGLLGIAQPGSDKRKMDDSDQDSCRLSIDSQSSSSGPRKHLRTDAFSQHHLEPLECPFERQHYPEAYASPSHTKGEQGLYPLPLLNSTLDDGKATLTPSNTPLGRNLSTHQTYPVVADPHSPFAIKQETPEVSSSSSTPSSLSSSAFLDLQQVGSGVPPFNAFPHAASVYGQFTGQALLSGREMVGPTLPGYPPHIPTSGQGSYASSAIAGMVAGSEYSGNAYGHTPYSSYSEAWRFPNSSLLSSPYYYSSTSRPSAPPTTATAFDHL

Compound: O=C(Cc1ccccn1)N1CCCCN2[C@@H](CO)[C@H](c3ccc(-c4ccc(F)cc4)cc3)[C@@H]2C1
- AC50 [1]: 1.43 µM (active)

Compound: COC(=O)Nc1nc2cc([S+]([O-])c3ccccc3)ccc2[nH]1 (stereo unspecified) [OXFENDAZOLE]
- IC50 [2]: 0.326 µM (active)
- IC50 [3]: > 20 µM (inactive)
- IC50 [4]: 1 nM (active)
- IC50 [5]: 1 nM (active)
- IC50 [6]: 0.331 µM (active)
- IC50 [7]: > 20 µM (inactive)
- IC50 [8]: > 20 µM (inactive)
- IC50 [9]: 1 nM (active)

Compound: O=C1C(=O)N(Cc2ccc(-c3ccsc3)cc2)c2ccc(OC(F)(F)F)cc21
- IC50 [10]: 25.5 µM (inactive)

Compound: Cc1n[nH]c(S/C(=C/c2ccc(OCc3ccc(C(=O)O)cc3)cc2)C(=O)O)n1
- IC50 (Albumin): > 94.1 µM (inactive)

Compound: CC1=NN(c2ccc(Cl)c(C(=O)O)c2)C(=O)/C1=C/c1ccc(-c2ccccc2[N+](=O)[O-])o1
- IC50 (Large T antigen): 15.7 µM (active)
- IC50 (Genome polyprotein): 9.5 µM (active)
- CC50 [11]: 100 µM (active)
- IC50 [12]: 28.7 µM (active)

Compound: C[C@@H]1CCCCO[C@@H](CN(C)C(=O)Nc2cccc3ccccc23)[C@H](C)CN([C@H](C)CO)C(=O)c2cc(NS(=O)(=O)c3ccccc3)ccc2O1
- AC50 (Paired box protein Pax-8): 3.66 µM (active)
- AC50 [13]: > 70 µM (inactive)

Compound: N#Cc1ccc(N2CCN(C(=O)CCCCCn3c(=S)[nH]c4ccccc4c3=O)CC2)cc1
- IC50 (Estrogen receptor beta): 10.5 µM (not active)

Compound: O=C(Nc1ccc(Br)cc1)c1cc(Br)cc(Br)c1O [TRIBROMSALAN]
- IC50 [2]: > 10 µM (inactive)
- IC50 [3]: 0.001 µM (active)
- IC50 [4]: 3 nM (active)
- IC50 [5]: 3 nM (active)
- IC50 [14]: 0.001 µM (active)
- IC50 [15]: 0.003 µM (active)
- IC50 [6]: > 10 µM (inactive)
- IC50 [7]: 0.001 µM (active)
- IC50 [8]: 0.001 µM (active)
- IC50 [9]: 1 nM (active)

Compound: CCOP(=S)(OCC)SCSc1ccc(Cl)cc1 [CARBOFENOTION]
- IC50 [3]: > 20 µM (inactive)
- IC50 [4]: > 20000 nM (inactive)
- IC50 [14]: > 20 µM (inactive)
- IC50 [15]: > 20 µM (inactive)
- IC50 [8]: > 20 µM (inactive)
- IC50 [9]: > 20000 nM (inactive)

Compound: O=C1NC(=O)N(Cc2ccco2)C(=O)/C1=C/NNC(=O)c1ccccc1
- IC50 (Albumin): > 94.2 µM (inactive)

Compound: CCOC(=O)/C(C#N)=C\c1c(OCC)n(CC)c2ccccc12
- CC50 [11]: 100 µM (active)
